From ChEMBL document CHEMBL5316352, “Puromycin Prodrug Activation by Thioredoxin Reductase Overcomes Its Promiscuous Cytotoxicity” (J Med Chem, 2023)
Activity calls are given as the source filed them. No cut-off for these calls is given here.

Tests used:
[1] = Prodrug activation in human HepG2 cells assessed as increase in biotin labelling at 10 uM incubated for 12 hrs by Western blotting analysis; type: cell-based; conditions: hepg2, 12 h
[2] = Prodrug activation in human HepG2 cells assessed as increase in rhodamine labelling at 10 uM incubated for 12 hrs by in-gel fluorescence imaging analysis; type: cell-based; conditions: hepg2, 12 h
[3] = Prodrug conversion in human HepG2 cells assessed as inhibition of proteome incorporation at 1 uM pretreated with AF for 30 mins followed by compound addition; type: cell-based; conditions: hepg2, 1 µM
[4] = Prodrug activation in human HepG2 cells assessed as increase in biotin labelling at 1 uM incubated for 12 hrs by Western blotting analysis; type: cell-based; conditions: hepg2, 12 h
[5] = Prodrug activation in human HepG2 cells assessed as increase in rhodamine labelling at 1 uM incubated for 12 hrs by in-gel fluorescence imaging analysis; type: cell-based; conditions: hepg2, 12 h
[6] = Prodrug conversion in human HepG2 cells assessed as proteome incorporation at 1 uM pretreated with AF for 30 mins followed by compound addition; type: ADME, cell-based; conditions: hepg2, 1 µM
[7] = Stability of compound in PBS at pH 7.4 assessed as parent compound remaining at 100 uM measured after 48 hrs by HPLC analysis; type: physicochemical; conditions: read-out: Stability
[8] = Stability in mouse plasma assessed as parent compound remaining at 100 uM measured after 48 hrs by HPLC analysis; type: ADME, cell-free; conditions: read-out: Stability
[9] = Stability in human plasma assessed as parent compound remaining at 100 uM measured after 48 hrs by HPLC analysis; type: ADME, cell-free; conditions: read-out: Stability
HeLa [10] = experiment: Cytotoxicity against human HeLa cells with high TrxR expression assessed as reduction in cell viability incubated for 48 hrs by MTT assay; type: functional, cell-based
HepG2 [11] = experiment: Cytotoxicity against human HepG2 cells with high TrxR expression assessed as reduction in cell viability incubated for 48 hrs by MTT assay; type: functional, cell-based; conditions: HepG2, 48 h
HL-60 [12] = experiment: Cytotoxicity against human HL-60 cells with low TrxR expression assessed as reduction in cell viability incubated for 48 hrs by MTT assay; type: functional, cell-based; conditions: HL-60, 48 h
MCF7 [13] = experiment: Cytotoxicity against human MCF7 cells with low TrxR expression assessed as reduction in cell viability incubated for 48 hrs by MTT assay; type: functional, cell-based; conditions: MCF7, 48 h
[14] = Cytotoxicity against human HEK293T cells with low TrxR expression assessed as reduction in cell viability incubated for 48 hrs by MTT assay; type: toxicity, cell-based, HEK-293T
[15] = Cytotoxicity against human BEAS-2B cells with low TrxR expression assessed as reduction in cell viability incubated for 48 hrs by MTT assay; type: toxicity, cell-based
HeLa [16] = experiment: Potency index, ratio of test compound IC50 to puromycin IC50 for cytotoxicity against human HeLa cells; type: functional
HepG2 [17] = experiment: Potency index, ratio of test compound IC50 to puromycin IC50 for cytotoxicity against human HepG2 cells; type: functional
HL-60 [18] = experiment: Potency index, ratio of test compound IC50 to puromycin IC50 for cytotoxicity against human HL-60 cells; type: functional
MCF7 [19] = experiment: Potency index, ratio of test compound IC50 to puromycin IC50 for cytotoxicity against human MCF7 cells; type: functional
HEK-293T = experiment: Potency index, ratio of test compound IC50 to puromycin IC50 for cytotoxicity against human HEK293T cells; type: functional
BEAS-2B = experiment: Potency index, ratio of test compound IC50 to puromycin IC50 for cytotoxicity against human BEAS-2B cells; type: functional
HepG2 [20] = experiment: Cytotoxicity against human HepG2 cells expressing shNT assessed as reduction in cell viability incubated for 48 hrs by MTT assay; type: functional, cell-based; conditions: HepG2, 48 h
HepG2 [21] = experiment: Cytotoxicity against human HepG2 cells expressing shTXNRD1 assessed as reduction in cell viability incubated for 48 hrs by MTT assay; type: functional, cell-based; conditions: HepG2, 48 h
[22] = Prodrug activation assessed as increase in TrxR (unknown origin) mediated NADPH oxidation by measuring absorbance at 340 nm at 150 uM; conditions: human
[23] = target: T1, Thioredoxin (Homo sapiens) (UniProt P10599); experiment: (§1) Substrate activity at Trx (unknown origin) assessed as reduction in 1,2-dithiolan-4-yl ((S)-1-(((2S,3S,4R,5R)-5-(6-(dimethylamino)-9H-purin-9-yl)-4-hydroxy-2-(hydroxymethyl)tetrahydrofuran-3-yl)amino)-3-(4-methoxyphenyl)-1-oxopropan-2-yl)carbamate level by measuring absorbance at 340 nm at 150 uM in presence of NADPH
T1 sequence (whole entry): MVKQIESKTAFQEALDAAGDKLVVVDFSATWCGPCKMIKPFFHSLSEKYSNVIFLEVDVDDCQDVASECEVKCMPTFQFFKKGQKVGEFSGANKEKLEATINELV

[24] = (§2) Prodrug activation in human HeLa cell lysate assessed as reduction in 1,2-dithiolan-4-yl ((S)-1-(((2S,3S,4R,5R)-5-(6-(dimethylamino)-9H-purin-9-yl)-4-hydroxy-2-(hydroxymethyl)tetrahydrofuran-3-yl)amino)-3-(4-methoxyphenyl)-1-oxopropan-2-yl)carbamate level by measuring absorbance at 340 nm at 150 uM pretreated with TrxR inhibitor AF for 30 mins followed by compound addition in presence of NADPH; type: ADME, subcellular
[25] = as §2, with “lysate expressing shTXNRD1” for “lysate”; type: ADME, subcellular
[26] = Prodrug activation assessed as TrxR (unknown origin) mediated compound reduction by measuring absorbance at 340 nm at 150 uM in presence of NADPH; conditions: human
[27] = target: T1, Thioredoxin (Homo sapiens); experiment: as §1, with “2-((2-hydroxyethyl)disulfaneyl)ethyl” for “1,2-dithiolan-4-yl”
[28] = Prodrug activation assessed as GSH mediated compound reduction by measuring absorbance at 340 nm at 150 uM in presence of NADPH

SMILES	remaining at 48 h, 100 µM [7]	remaining at 48 h, 100 µM [8]	remaining at 48 h, 100 µM [9]	IC50 (HeLa [10])	IC50 (HepG2 [11])	IC50 (HL-60 [12])	IC50 (MCF7 [13])	IC50 at 48 h [14]	IC50 at 48 h [15]	other results
C#CCOc1ccc(C[C@H](NC(=O)OC2CSSC2)C(=O)N[C@H]2[C@@H](O)[C@H](n3cnc4c(N(C)C)ncnc43)O[C@@H]2CO)cc1										Activity [1]: Active; Activity [2]: Active; inhibition (INH) [3]: Active
C#CCOc1ccc(C[C@H](N)C(=O)N[C@H]2[C@@H](O)[C@H](n3cnc4c(N(C)C)ncnc43)O[C@@H]2CO)cc1										Activity [4]: Active; Activity [5]: Active; Activity [6]: Active
COc1ccc(C[C@H](NC(=O)OC2CSSC2)C(=O)N[C@H]2[C@@H](O)[C@H](n3cnc4c(N(C)C)ncnc43)O[C@@H]2CO)cc1	> 90%	> 90%	> 90%	6.08 µM	8.08 µM	55 µM	14.2 µM	19.5 µM	8.42 µM	Ratio IC50 (HeLa [16]): 6.8; Ratio IC50 (HepG2 [17]): 6.3; Ratio IC50 (HL-60 [18]): 14.7; Ratio IC50 (MCF7 [19]): 13.4; Ratio IC50 (HEK-293T): 15.2; Ratio IC50 (BEAS-2B): 11.4; IC50 (HepG2 [20]): 4.88 µM; IC50 (HepG2 [21]): 11.3 µM; Activity [22]: Active; Activity [23]: Active; Drug metabolism [24]: Metabolite_Notdetected; Drug metabolism [25]: Metabolite_Notdetected
COc1ccc(C[C@H](N)C(=O)N[C@H]2[C@@H](O)[C@H](n3cnc4c(N(C)C)ncnc43)O[C@@H]2CO)cc1 [PUROMYCIN]				0.9 µM	1.29 µM	3.73 µM	1.06 µM	1.28 µM	0.74 µM	
COc1ccc(C[C@H](NC(=O)OCCCCCCO)C(=O)N[C@H]2[C@@H](O)[C@H](n3cnc4c(N(C)C)ncnc43)O[C@@H]2CO)cc1	> 90%	> 90%	> 90%	> 40 µM	> 40 µM	> 40 µM	> 40 µM	> 40 µM	> 40 µM	Drug metabolism [26]: Metabolite_Notdetected
COc1ccc(C[C@H](NC(=O)OCCSSCCO)C(=O)N[C@H]2[C@@H](O)[C@H](n3cnc4c(N(C)C)ncnc43)O[C@@H]2CO)cc1	> 90%	42%	29%	6.84 µM	9.27 µM	56.7 µM	27.5 µM	24.7 µM	12.6 µM	Activity [27]: Active; Activity [28]: Active
COc1ccc(C[C@H](NC(=O)OC2CCCC2)C(=O)N[C@H]2[C@@H](O)[C@H](n3cnc4c(N(C)C)ncnc43)O[C@@H]2CO)cc1	> 90%	> 90%	> 90%	> 40 µM	> 40 µM	> 40 µM	> 40 µM	> 40 µM	> 40 µM	Drug metabolism [26]: Metabolite_Notdetected
